Tests used:
PC3 cells [1] = assay: Tumor cell invasion across Matrigel-coated Transwell inserts; format: cell-based, human; settings: for effect on tumor cell invasion in the presence of PI3K therapy: with PX-866, Matrigel, Antimycin A 30 μM, Oligomycin 2.5 μM, Rotenone 4 μM, CCCP 12.5 μM
Protocol: Tumor cell invasion: Experiments were carried out essentially as described (41). Briefly, 8 μm PET transwell migration chambers (Corning) were coated with 150 μl of 80 μg/ml Matrigel (Becton Dickinson). Tumor cells were seeded in duplicates onto the coated transwell filters at a density of 1.25×10^5 cells/well in media containing 2% FCS (FCIII, Hyclone) and media containing 20% FCS was placed in the lower chamber as chemoattractant. Cells were allowed to invade and adhere to the bottom of the plate stained in 0.5% crystal violet/methanol for 10 min, rinsed in tap water and analyzed by bright field microscopy. Digital images were batch imported into ImageJ, thresholded and analyzed with the Analyze particles function. For analysis of tumor cell invasion in 3D spheroids, tissue culture-treated 96-well plates were coated with 50 μl 1% DIFCO Agar Noble (Becton Dickinson). LN229 cells were seeded at 5,000 cells/well and allowed to form spheroids over 72 h. Spheroids were harvested, treated with PX-866 (0-10 µM) and placed in a collagen plug containing EMEM, FBS, L-Glutamine, sodium bicarbonate, and collagen type I (Gibco, 1.5 mg/ml). The collagen plug was allowed to set and 1 ml DMEM with 5% FBS was added to the top of the plug. Cell invasion was analyzed every 24 h and quantified using Image Pro Plus 7, as described^41.
Cell culture and drug treatment: Human GBM LN229, prostate adenocarcinoma PC3, lung carcinoma A549, and mouse fibroblasts NIH3T3 cells were obtained from the American Type Culture Collection (ATCC, Manassas, Va.), and maintained in culture according to the supplier's specifications. Conditioned media was prepared from exponentially growing cultures of NIH3T3 cells as previously described^41, in DMEM supplemented with 4.5 g/l D-glucose, sodium pyruvate, 10 mM HEPES and 10% FBS for 48 h. Where indicated, starvation was carried out in DMEM without glucose for 24 h. PI3K inhibitors were dissolved in DMSO at 10 mM and added to the culture media for 48 h at the following concentrations: AZD6482 at 10 μM, GCD0941 at 2 μM, BKM120 at 0.4 μM and PX-866 at 5 μM. mitoTEMPO was added to the culture media at 50-100 μM, NAC at […], Antimycin A at 30 μM, Oligomycin at 2.5 μM, Rotenone at 4 μM and CCCP at 12.5 μM. For invasions, the antioxidants, ROS scavengers, and ETC inhibitors were added to the top and bottom of the chambers at the moment of cell seeding.

PC3 cells [2] = assay: Mitochondrial localization by fluorescence microscopy; format: cell-based, human; settings: for effect on mitochondrial repositioning to the cortical cytoskeleton in the presence of PI3K therapy: with PX-866, Antimycin A 30 μM, Oligomycin 2.5 μM, Rotenone 4 μM, CCCP 12.5 μM
Protocol: Mitochondrial localization. After the indicated transfections or treatments, cells were stained with MitoTracker Red CMXRos (100 nM, 2 h) at 37° C. After fixation with 4% formalin in PBS for 15 min at room temperature, cells were permeabilized with 0.1% Triton X-100/PBS for 5 min, washed, and incubated 30 min with 1% BSA/0.3M glycine/PBS. F-actin was stained with phalloidin Alexa488 (1:1000 dilution) for 30 min at room temperature. Slides were washed and mounted in DAPI-containing Prolong Gold mounting medium (Invitrogen). At least 7 random fields were analyzed by fluorescence microscopy in a Nikon E600 microscope. Composite images were analyzed in Image J, for each cell two lamellipodia were measured to calculate infiltration index, defined as the radial distance from nucleus to furthest mitochondrial string, normalized to the radial distance from nucleus to cell border. In parallel, all cells on the 7 fields were scored into 3 categories, according to gross localization of mitochondria: polarized, pen-nuclear, and infiltrating. For cortical mitochondria quantification, a mask was manually created around the periphery of the cell based on the F-actin channel and subsequently applied to the mitochondria channel to measure intensity at the cortical region (FIG. 8H). The intensity was normalized to total mitochondria intensity per cell and background subtracted. A minimum of 20 cells were analyzed in each independent experiment to obtain mean values. For high resolution imaging of mitochondria in MFN1-depleted cells, slides were sequentially scanned for red, green, and blue fluorescence by a Leica SP5 confocal microscope with a 63× objective and a 20× digital zoom. Full cell z stacks (about 5-8 μm) were postprocessed in Leica Application Suite Advanced Fluorescence (LAS AF) to reduce noise by applying a median filter (two iterations, radius 3) and used to generate max projections.

[3] = test system: patient-derived GBM neurospheres; assay: GBM neurosphere formation (number and size); format: cell-based, human; settings: Gamitrinib 5 μM plus PX-866 10 μM, 48 h
Protocol: GBM neurospheres: Fresh GBM specimens collected from consenting patients (Division of Neurosurgery, Fondazione IRCCS Ca′ Granda, Milan, Italy) were immediately processed for the isolation of stem cell-containing neurospheres. Briefly, tissues were enzymatically processed with the Tumor Dissociation Kit (Miltenyi Biotech) at 37° C. in combination with the gentleMACS™ Dissociators (Miltenyi Biotech) until achievement of single cell suspension. Then, dissociated GBM cells were grown as spheroid aggregates (neurospheres) as previously described^43 and using the NeuroCult NS-A Proliferation media (StemCell Technologies) supplemented with 20 ng/ml EGF and 10 ng/ml bFGF (Stem Cell Technologies) according to manufacturer's protocol. When pharmacological treatment was performed, neurospheres derived from five GBM patients were mechanically dissociated, stained with PKH26 (Sigma Aldrich) as described^44, and plated at a density of 1000 cells per well in 24-well plates. The intended use of the non-toxic dye PKH26 was for live cell identification and staining. […] During this interval, neurospheres were imaged every 24 h and their size (diameter) and number was assessed by direct counting using ImageJ software. PKH26 was monitored and recorded using the TRITC fluorescent filter. Experiments were performed in duplicates. […]

PC3 cells [4] = assay: Focal adhesion (FA) complexes and mitochondria dual labeling; format: cell-based, human; settings: non-toxic concentrations of Gamitrinib (1 μM), 48 h
Protocol: Focal adhesion (FA) complexes and mitochondria dual labeling. Coverslides were coated with fibronectin (10 μg/ml in PBS) overnight at 4° C., rinsed in PBS and equilibrated at 37° C. with 500 μl of 10% FBS/RPMI. Cells were treated as indicated, tripsinized, washed with 10% FBS/RPMI and plated on fibronectin-coated slides, in the presence of Mitotracker Red CMXRos (100 nM). After 5 h, cells were fixed with 10% formalin in PBS for 15 min at room temperature, permeabilized with 0.1% Triton X-100/PBS for 5 min, washed, and FAs were labeled with primary antibodies diluted in 1% BSA/0.3M glycine/PBS, overnight at 4° C. Either one of the following antibodies were used: rabbit anti-pY925-FAK (1:50, Cell Signaling), mouse anti-Paxillin (1:100, Upstate). Next, slides were washed, incubated with secondary antibodies (1:500, Alexa Fluor 488 conjugated) for 1 h at room temperature, washed and mounted in DAPI-containing Prolong Gold mounting medium (Invitrogen). Slides were sequentially scanned for red, green and blue fluorescence in a Leica SP5 confocal microscope with a 100× objective. Libraries were imported into LASLite and a 3 step z-stack centered at the plane of focal adhesions (±0.5 μm) were used to generate 3D max projections.

[5] = test system: patient-derived glioblastoma (GBM) organotypic cultures; assay: Kinome profiling (OpenArray real-time PCR) of GBM organotypic cultures; format: cell-based, human; settings: PX-866 10 μM for 48 h vs vehicle
Protocol: (§1) Organotypic cultures: Short-term organotypic cultures from primary patient samples were established as described^13. Briefly, precise thick tissue slices (300 μm) were obtained by vibratome serial cutting (VT1200, Leica Microsystems, Milan, Italy), and cultured in six-well plates on organotypic inserts (Millicell PICM ORG, Merck Millipore) for up to 48 h in 1 ml of Ham-F12 complete medium supplemented with vehicle (DMSO, 2.5 μl) or pan-PI3K inhibitor […] (10 μM). At the end of the experiment, one tissue slice per condition was formalin-fixed and paraffin-embedded, and further processed for morphological and immunohistochemical analysis. An additional tissue slice was embedded in OCT, and snap-frozen for molecular or immunofluorescence studies.
Kinome profiling and bioinformatics analysis. Transcriptional changes in the human kinome following PI3K inhibition were analyzed using OpenArray real-time PCR amplification. […] The ΔΔCt method was used to calculate fold changes between sample pairs with endogenous control Ct value calculated as average among 15 endogenous controls on the array: ALAS1, B2M, CASC3, G6PD, GAPDH, GUSB, HMBS, HPRT1, IPO8, POLR2A, PPIA, RPLP0, TFRC, UBE2D2, and YWHAZ. The p values for differential expression were calculated using fold changes of 15 endogenous controls as a null distribution.

GBM organotypic cultures = assay: Human phospho-RTK array, GBM organotypic cultures; format: cell-based; settings: primary organotypic cultures, PX-866 10 μM for 48 h
Protocol: (§2) The position and identity of phosphorylated proteins are indicated. M, markers.
as §1

GBM LN229 cells = assay: Human phospho-RTK array, LN229 cells; format: cell-based; settings: PX-866 10 μM for 48 h
From the text: as §2

PC3 cells [6] = assay: Detection of mitochondrial superoxide in live cells (MitoSOX Red); format: cell-based, human; settings: PX-866 48 h with mitoTEMPO
Protocol: Detection of mitochondrial superoxide in live cells. The production of superoxide by mitochondria was visualized in fluorescence microscopy using the MitoSOX™ Red reagent. Briefly, 1.5×10^4 cells were grown on high optical quality 8 well μ-slides (Ibidi) and imaged with a 40× objective on a Nikon TE300 inverted time-lapse microscope equipped with a video system containing an Evolution QEi camera and a time-lapse video cassette recorder. The atmosphere was equilibrated to 37° C. and 5% CO2 in an incubation chamber. Phase contrast and TRITC (TRITC filter cube, excitation wavelength: 532-554 nm, emission wavelength: 570-613 nm) images were captured. To quantitate superoxide levels, files were imported into Image J, masks were manually created around the periphery of the cell based on the Phase image and subsequently applied to the TRITC channel to measure intensity. A minimum of 100 cells were analyzed in each independent experiment to obtain mean values.

Molecule: Antimycin A
- effect on tumor cell invasion in the presence of PI3K therapy (PC3 cells [1]): inhibited
- effect on mitochondrial repositioning to the cortical cytoskeleton in the presence of PI3K therapy (PC3 cells [2]): inhibited

Molecule: CC(=O)N[C@@H](CS)C(=O)O [NAC, N-acetyl cysteine]
- effect on PI3K therapy-mediated tumor cell invasion (PC3 cells [1]; increasing concentrations of NAC with PX-866 48 h, Matrigel): had no effect

Molecule: Gamitrinib
- effect on increase in tumor cell invasion mediated by PI3K antagonists (PC3 cells [1]; Gamitrinib with PX-866 5 μM, Matrigel): abolished the increase
- effect on expansion of primary GBM neurospheres mediated by PI3K antagonists [3]: abolished
- mitochondrial distribution (polarized, perinuclear, infiltrating) with PI3K inhibitors (PC3 cells [2]; Gamitrinib in combination with PI3K inhibitors): preserved a polarized and perinuclear mitochondrial distribution
- effect on trafficking of mitochondria to pFAK-containing FA complexes in response to PI3K antagonists (PC3 cells [4]): abolished

Molecule: CC[C@H]1/C=C/C=C/C[C@@H](C)[C@H](O)[C@@](C)(O)C(=O)[C@@H](C)[C@H](O)[C@@H](C)C(=O)[C@@H](C)[C@H](O)[C@@H](C)/C=C/C(=O)O[C@@H]2[C@H](C)[C@H](CC1)O[C@]1(CC[C@H](C)[C@H](C[C@@H](C)O)O1)[C@H]2C [Oligomycin]
- effect on tumor cell invasion in the presence of PI3K therapy (PC3 cells [1]): inhibited
- effect on mitochondrial repositioning to the cortical cytoskeleton in the presence of PI3K therapy (PC3 cells [2]): inhibited

Molecule: C=C(C)[C@H]1Cc2c(ccc3c2O[C@@H]2COc4cc(OC)c(OC)cc4[C@@H]2C3=O)O1 [Rotenone]
- effect on tumor cell invasion in the presence of PI3K therapy (PC3 cells [1]): inhibited
- effect on mitochondrial repositioning to the cortical cytoskeleton in the presence of PI3K therapy (PC3 cells [2]): inhibited

Molecule: C=CCN(/C=C1/C(=O)O[C@H](COC)[C@@]2(C)C1=C(O)C(=O)C1=C2[C@H](OC(C)=O)C[C@]2(C)C(=O)CC[C@@H]12)CC=C [PX-866]
- transcriptional changes of growth factor receptor pathways (kinome) [5]: transcriptional upregulation of multiple growth factor receptor pathways
- phosphorylation, i.e. activation of the GBM kinome (GBM organotypic cultures): widespread phosphorylation
- phosphorylation, i.e. activation of the GBM kinome (GBM LN229 cells): widespread phosphorylation

Molecule: CC1(C)CC(NC(=O)C[P+](c2ccccc2)(c2ccccc2)c2ccccc2)CC(C)(C)N1[O] [mitoTEMPO]
- effect on tumor cell invasion mediated by PI3K inhibitors (PC3 cells [1]; mitoTEMPO with PX-866, Matrigel): did not affect
- effect on mitochondrial repositioning to the cortical cytoskeleton mediated by PI3K inhibitors (PC3 cells [2]; mitoTEMPO 50 μM with PI3K inhibitors): did not affect
- effect on PI3K antagonist-induced mitochondrial superoxide production (PC3 cells [6]): abolished

Molecule: carbonyl cyanide m-chlorophenyl hydrazine [CCCP]
- effect on tumor cell invasion in the presence of PI3K therapy (PC3 cells [1]): inhibited
- effect on mitochondrial repositioning to the cortical cytoskeleton in the presence of PI3K therapy (PC3 cells [2]): inhibited

Reference: US20170000804A1, “Methods and Compositions for Inhibiting Mitochondrial Trafficking” (The Wistar Institute of Anatomy and Biology, priority 2015, published 2017)
